Test results reported in patent publication US12583895B2, “Polypeptides for restoring endothelial function and methods of use thereof” (Vanderbilt University, priority 2019, dated 2026).
“Also recorded” adds a separate entry of the source. Non-standard residues stand in square brackets, D forms with d. No end group written: not given here. pS = N[C@@H](COP(=O)(O)O)C(=O)O

What was measured:
[1] = system: rat aorta; experiment: Endothelial-dependent relaxation of rat aorta after BzATP (ATP / P2X7R) injury, muscle bath; assay type: cell-based; details: BzATP 1 mM, room temperature; for endothelial function (percent relaxation to carbachol of PE-precontracted tissue) after BzATP injury: peptide 100 and 500 μM, 1 hour
Description: Freshly isolated rat aorta was treated with 3′-O-(4-Benzoyl)benzoyl adenosine 5′-triphosphate (BzATP, 1 mM), an analogue of ATP, to induce injury in the absence or presence of NiPp (100 and 500 μM) for 1 hour at room temperature. To determine the effect of injury on endothelial function, phenylephrine (PE)-precontracted tissues were treated with carbachol (CCH; 5×10^−7 M) and the percent relaxation was determined as a change to the maximal PE-induced contraction. Data are reported as mean responses±standard deviation. n=5-6. *p<0.05, paired t-test.
Freshly isolated rat aorta was treated with 3′-O-(4-Benzoyl)benzoyl adenosine 5′-triphosphate (BzATP, 1 mM), an analogue of ATP, to induce injury in the absence or presence of NiPp, NiPp3, or scr3NiPp (A, 100 and B, 500 μM) for 1 hour at room temperature. To determine the effect of injury on endothelial function, phenylephrine (PE)-precontracted tissues were treated with escalating doses of carbachol (CCH; 10^−10 to 10^−5M) and the percent relaxation was determined as a change to the maximal PE-induced contraction. n=7. *p<0.05, two-way ANOVA with Tukey post-tests. There were significant differences between BzATP-treated vs ctrl or NiPp-treated RA.
Tissue rings were then transferred to NS and continued incubation in the absence or presence of NiPp (500 μM) for 2 h at room temperature. Control rings (Ctrl) were incubated in PL for 2.5 h. […] After treatments, RA were suspended in the muscle bath, contracted with PE and then treated with escalating doses of carbachol (CCH; 10^−8 to 10^−5M). The percent relaxation was determined as a change to the maximal PE-induced contraction. Percent relaxation to 5×10^−7 M CCH is shown. n=5-7 rats. *p<0.05 in one-way ANOVA with Tukey post-test. Data are expressed as mean±SD.
NiPp was synthesized at 3 separate times and tested in the muscle bath using rat aorta (RA). RA was either left untreated (Ctrl) or treated with BzATP (1 mM) in the absence of presence of NiPp (500 μM) in PL for 2 h at room temperature. After treatments, RA were suspended in the muscle bath, contracted with PE and then treated with escalating doses of carbachol 5×10^−7 M CCH. The percent relaxation was determined as a change to the maximal PE-induced contraction. […] Data are expressed as mean±SD.
Measurement of endothelial-dependent relaxation. […]
This produced the maximal force tension relationship as previously described. […] Contractile responses were defined by stress, calculated using force generated by tissues as follows: stress (×10^5 N/m^2)=force (g)×0.0987/area, where area=wet weight (mg)/at maximal length (mm)]/1.055.
Relaxation was calculated as percent change in stress compared to the maximal PE-induced contraction (set as 100%). […]

[2] = target: p38 MAPKα (MAPK14) (Homo sapiens, UniProt Q16539); experiment: SelectScreen kinase profiling; assay type: biochemical; details: peptide 100 μM, single concentration
Description: FIGS. 14A and 14B show kinase profiling of polypeptides. NiPp, scr3NiPp, and NiPp3 were profiled against 490 kinases at 100 uM using the SelectScreen Kinase Profiling Service (www.thermofisher.com). […] NiPp inhibits MSK1 and p38MAPK alpha by >60%. These two kinases are central to the p38MAPK kinase signaling cascade that play important roles in stress and inflammatory responses. NiPp-specific inhibitory activity to p38 MAPK were not detected for NiPp3 (non-phosphorylated) or scr3NiPp (scrambled) polypeptides.
(§1) Kinase profiling. NiPp was dissolved in DMSO, screened at a single concentration of 100 μM using in vitro kinase assays (SelectScreen Kinase Profiling Service; ThermoFisher Scientific, Madison WI) including the Z'LYTE and Adapta kinase activity assays and the LanthaScreen Eu Kinase Binding Assay). Candidate interactions were predicted using STRING Version 11 (www.string-db-org) with the human database at confidence=0.7.
As injury leads to increased p38 MAPK phosphorylation and decreased Niban phosphorylation, one of the mechanisms by which NiPp restores function after endothelial injury can be kinase inhibition. A kinase profiling was performed using three different profiling platforms that measure activity and kinase/substrate binding. […]

[3] = target: p38 MAPK β isoform (Homo sapiens, UniProt Q15759); experiment: SelectScreen kinase profiling; assay type: biochemical; details: NiPp 100 μM
Description: as §1
Since NiPp treatment was associated with decreased phosphorylation of p38 MAPK in RA, a mechanism of NiPp function can kinase inhibition. Therefore, a kinase profiling assay was performed to determine the effect of NiPp on the activity of a panel of kinases in vitro. The top two kinases inhibited by NiPp were MSK1 and p38 MAPKα. Inhibition to the p38 MAPKα isoform appeared to be specific as inhibition by NiPp to the other isoforms (β, δ, and γ) in the kinaseprofiling screen were only at 5, 3, and 3% respectively. Despite high sequence homology, the isoforms have difference in tissue expression, upstream kinase activators and downstream substrates. The p38 MAPKα isoform, initially identified as a protein that underwent phosphorylation in response to endotoxin treatment and hyperosmolarity shock, plays a role in endothelial dysfunction in that inhibition of this isoform leads to improved endothelial function in animal models of cardiovascular diseases including cardiac hypertrophy, balloon injury, salt/fat induced hypertension and in hypercholesterolemic patients. The α-isoform is also a key regulator of pro-inflammatory cytokine production and itself can be activated by IL1-β. MSK1, a downstream kinase of the p38 MAPK activation (FIG. 19), has complex cell-dependent roles in inflammatory responses. In endothelial cells, MSK1 promotes CREB activation in response to TNFα.

Chain of p38 MAPKα (MAPK14) (Q16539 whole entry): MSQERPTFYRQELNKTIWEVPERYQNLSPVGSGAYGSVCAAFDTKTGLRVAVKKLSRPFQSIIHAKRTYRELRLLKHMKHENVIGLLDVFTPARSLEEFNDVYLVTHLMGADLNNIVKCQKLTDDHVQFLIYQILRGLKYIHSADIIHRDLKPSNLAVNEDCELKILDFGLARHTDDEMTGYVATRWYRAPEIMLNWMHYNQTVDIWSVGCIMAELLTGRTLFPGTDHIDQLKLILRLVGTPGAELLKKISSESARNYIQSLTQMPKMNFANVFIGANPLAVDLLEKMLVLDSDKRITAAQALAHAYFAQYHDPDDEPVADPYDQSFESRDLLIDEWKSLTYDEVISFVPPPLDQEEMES
Chain of p38 MAPK β isoform (Q15759 whole entry, canonical isoform): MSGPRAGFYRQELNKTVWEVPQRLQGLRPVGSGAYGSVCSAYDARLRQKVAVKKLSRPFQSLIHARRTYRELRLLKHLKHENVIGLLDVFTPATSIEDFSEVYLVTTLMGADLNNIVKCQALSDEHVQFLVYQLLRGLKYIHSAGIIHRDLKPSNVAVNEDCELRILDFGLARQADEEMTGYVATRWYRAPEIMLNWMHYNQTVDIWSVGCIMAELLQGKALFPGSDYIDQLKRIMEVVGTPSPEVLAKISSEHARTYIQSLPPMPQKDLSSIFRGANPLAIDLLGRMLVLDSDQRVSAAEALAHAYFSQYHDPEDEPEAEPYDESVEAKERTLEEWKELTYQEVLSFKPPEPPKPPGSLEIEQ

Substance: YARAAARQARASPAARRASAILPG (not fully specified (residue 19)) [NiPp3]
- endothelial function (percent relaxation to carbachol of PE-precontracted tissue) after BzATP injury [1]: did not restore
- % inhibition of p38 MAPKα [2]: not detected

Substance: YARAAARQARASPAARRA(pS)AILPG (YARAAARQARASPAARRA[pS]AILPG) [NiPp, Cell-permeant phosphopeptide mimetic of Niban: transduction domain … conjugated to the region surrounding serine 602 of Niban]
- endothelial function (percent relaxation to 5×10^−7 M CCH) after P2X7R activation by BzATP ([1]; NiPp 500 μM in PL, 1 h): prevented; also recorded: restores
- endothelial function (percent relaxation to carbachol of PE-precontracted tissue) after BzATP injury [1]: restored
- % inhibition of p38 MAPK β isoform [3]: 5%

Substance: YARAAARQARAAGSPPLA(pS)AIARR (YARAAARQARAAGSPPLA[pS]AIARR) [scr3NiPp]
- endothelial function (percent relaxation to carbachol of PE-precontracted tissue) after BzATP injury [1]: did not restore
- % inhibition of p38 MAPKα [2]: not detected
